# According to patent publication US7592326B2, “Method for stimulating the immune, inflammatory or neuroprotective response” (priority 2004, dated 2009):
# Tests used:
# anti-ClfA IgG antibody = assay: Adjuvant effect in vaccination with S. aureus ClfA (serum ELISA); assay type: in vivo, CD-1 female mice
# Procedure: To evaluate the capacity of c-di-GMP to increase antibody production in the mouse (adaptive immune response), the cyclic dinucleotide was used as adjuvant for vaccination with S. aureus ClfA recombinant protein (a surface adhesion protein of S. aureus binding fibrinogen), as previously done for ClfA alone without adjuvant (Brouillette et al., 2002). Two groups of eight CD-1 female mice were vaccinated intramuscularly with 100 μl of saline containing 25 μg of ClfA. For one of the groups, the solution injected also contained 200 nmol of c-di-GMP. A volume of 50 ul was then injected into both quadriceps. This procedure was repeated two weeks after, for a second injection. Twelve days later, i.e. 26 days after the initial injections, blood samples were taken and incubated at 35° C. for an hour to allow coagulation, and then centrifuged at 13,000 g for 10 min at 4° C. Sera were harvested and kept at −20° C. until tested. The institutional ethics committee on animal experimentation of the Faculté des sciences of Université de Sherbrooke approved these experiments and were carried out following the guidelines of the Canadian Council on Animal Care.
# Enzyme-linked immunosorbant assays (ELISA) were used to determine the presence of IgG antibodies against the ClfA antigen in the mouse serum, as previously described (Brouillette et al., 2002). Polystyrene Maxisorp 96-well plates (Nalge-Nunc International) were coated for 2 h with 50 μl of recombinant ClfA (domaine A) protein at a concentration of 10 μg/ml in carbonate/bicarbonate buffer at pH 9.6. Following saturation of the wells with a solution of powdered milk in PBS (5% w/v), overnight at 4° C., four-fold dilutions of sera (1/1000 to 1/64000) were added and incubated for 2 h at 35° C. and then overnight at 4° C. Biotinylated anti-mouse IgG (1/1000) was added and incubated for 2 h at 35° C. After 1 h of incubation with streptavidin-HRP (Amersham Pharmacia Biotech) diluted 1/500, 100 μl of Sure Blue TMB Peroxidase Substrate (KPL) was added. The enzyme reaction was stopped by the addition of 50 μl of 1N HCl after 6 min of incubation. Between each step, three washes with PBS-Tween 0.05% were carried out. The optical density (OD) was read on a plate reader (Bio-Tek Instruments) at 450 nm.
# ELISA assays were carried out as for the total IgG assay but the secondary antibody was either mouse anti-IgG1-HRP or mouse anti-IgG2a-HRP (BD Pharmingen) and four-fold dilutions of sera form 1/250 to 1/16000 were assayed. Quantitation of mouse antibodies was achieved as for the total IgG assay but the development of coloration was allowed for 10 min. […] For the statistical analysis of ELISA results, the O.D. data for mice vaccinated with the c-di-GMP molecule as adjuvant were matched up to the corresponding data (isotype and dilution) where mice were injected with saline instead of c-di-GMP. One way analysis of variance (ANOVA) was used with the Bonferroni post-hoc test to account for multiple comparisons (Graphpad InStat software, version 3.06).
# [1] = system: Plasmacytoid dendritic cells (pDCs); assay: IFN secretion by human plasmacytoid dendritic cells; assay type: cell-based; settings: two independent experiments in duplicate; data not shown
# Procedure: Venipuncture was performed on consenting adults using approved protocols. Plasmacytoid dendritic cells (pDCs) were prepared, as previously described (Schroeder et al., 2005), using a 2-step procedure involving Percoll density centrifugation followed with selection for Blood Dendritic Cell Antigen (BDCA)-4 positive cells (Miltenyi Biotec, Inc., Auburn, Calif.). The capacity of c-di-GMP to induce IFN-alpha from these cells was assessed using cell culture and ELISA protocols also previously described (Schroeder et al., 2005) and was simultaneously compared to the […] produced by pDC in response to cells stimulated with CpG oligodeoxynucleotide (ODN)-2216 (Krieg, 2002).
# S. aureus = settings: cited from earlier work
# [2] = serum dilution of 1/1000, FIG. 7B
smiles,measurement,setting,value
"Nc1nc(=O)c2ncn([C@@H]3OC4COP(=O)(O)O[C@H]5[C@@H](O)[C@H](n6cnc7c(=O)nc(N)[nH]c76)O[C@@H]5COP(=O)(O)OC4C3O)c2[nH]1 (stereo partly drawn) [c-di-GMP, Bis(3′→5′)-cyclic diguanylic acid]","ELISA optical density, IgG1 and IgG2a isotypes","anti-ClfA IgG antibody; serum dilution 1/16000, c-di-GMP treated group",around 0.5
same,"ELISA optical density, total IgG","anti-ClfA IgG antibody; serum dilution 1/64000, c-di-GMP treated group",around 0.5
same,increase of IgG1 (optical density ratio c-di-GMP/saline),anti-ClfA IgG antibody; [2],3.6 times
same,increase of IgG2a (optical density ratio c-di-GMP/saline),anti-ClfA IgG antibody; [2],208.9 times
same,increase of total IgG (optical density ratio c-di-GMP/saline),anti-ClfA IgG antibody; [2],7.7 times
same,anti-ClfA IgG antibody titers compared with ClfA alone,"anti-ClfA IgG antibody; two i.m. injections, 200 nmol c-di-GMP + 25 μg ClfA, serum day 26, P<0.001",significantly higher
same,induction of Type I IFN from pDC,[1],negative
same,colonization of the mouse mammary glands by S. aureus,"S. aureus; intramammary, at time of challenge and 4 h post-inoculation",significantly decreased
same,in-vivo dose giving maximal benefit,S. aureus; previously published studies,200 nmoles/animal
